Laboratory results taken from the supplement of paper PMC10307832.

What was measured:
Assay in all cases: relative viability (nuclei count vs DMSO), 5 days (fraction); higher = more cells survive
KN-93 + Luminespib = compound: CN(C/C=C/C1=CC=C(C=C1)Cl)CC2=CC=CC=C2N(CCO)S(=O)(=O)C3=CC=C(C=C3)OC [KN-93] + CCNC(=O)c1noc(-c2cc(C(C)C)c(O)cc2O)c1-c1ccc(CN2CCOCC2)cc1 [Luminespib] (partner 0.01 µM)
In short: (§1)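 After 5 days of treatment, lung cancer cells in 1536-well plates were fixed and stained in a single step (final 0.05% Triton X-100, 1% formaldehyde, 1 ug/ml Hoechst) and their nuclei counted on 4× images. Treatment had been applied by pin tool the day after seeding as one drug alone or as a fixed anchor-drug dose with five library-drug doses (not always all listed) in √10 steps. Relative viability is the nuclei count of treated wells divided by that of vehicle wells, and values are medians of duplicate plates.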

KN-93 + Vorinostat = compound: CN(C/C=C/C1=CC=C(C=C1)Cl)CC2=CC=CC=C2N(CCO)S(=O)(=O)C3=CC=C(C=C3)OC [KN-93] + O=C(CCCCCCC(=O)Nc1ccccc1)NO [Vorinostat] (partner 1 µM)
In short: as §1

KN-93 + Trametinib = compound: CN(C/C=C/C1=CC=C(C=C1)Cl)CC2=CC=CC=C2N(CCO)S(=O)(=O)C3=CC=C(C=C3)OC [KN-93] + CC(=O)Nc1cccc(-n2c(=O)n(C3CC3)c(=O)c3c(Nc4ccc(I)cc4F)n(C)c(=O)c(C)c32)c1 [Trametinib] (partner 0.02 µM)
In short: as §1

KN-93 + OSI-027 = compound: CN(C/C=C/C1=CC=C(C=C1)Cl)CC2=CC=CC=C2N(CCO)S(=O)(=O)C3=CC=C(C=C3)OC [KN-93] + COc1cccc2cc(-c3nc([C@H]4CC[C@H](C(=O)O)CC4)n4ncnc(N)c34)[nH]c12 [OSI-027] (partner 0.5 µM)
In short: as §1

KN-93 + AZD7762 = compound: CN(C/C=C/C1=CC=C(C=C1)Cl)CC2=CC=CC=C2N(CCO)S(=O)(=O)C3=CC=C(C=C3)OC [KN-93] + NC(=O)Nc1cc(-c2cccc(F)c2)sc1C(=O)N[C@H]1CCCNC1 [AZD7762] (partner 0.2 µM)
In short: as §1

Cell Line	relative viability (KN-93 + Luminespib; first compound 0.08 µM)	relative viability (KN-93 + Luminespib; first compound 0.253 µM)	relative viability (KN-93 + Luminespib; first compound 2.53 µM)	relative viability (KN-93 + Luminespib; first compound 8 µM)	relative viability (KN-93 + Vorinostat; first compound 0.08 µM)	relative viability (KN-93 + Vorinostat; first compound 0.253 µM)	relative viability (KN-93 + Vorinostat; first compound 2.53 µM)	relative viability (KN-93 + Vorinostat; first compound 8 µM)	relative viability (KN-93 + Trametinib; first compound 0.08 µM)	relative viability (KN-93 + Trametinib; first compound 0.253 µM)	relative viability (KN-93 + Trametinib; first compound 2.53 µM)	relative viability (KN-93 + Trametinib; first compound 8 µM)	relative viability (KN-93 + OSI-027; first compound 0.08 µM)	relative viability (KN-93 + OSI-027; first compound 0.253 µM)	relative viability (KN-93 + OSI-027; first compound 2.53 µM)	relative viability (KN-93 + OSI-027; first compound 8 µM)	relative viability (KN-93 + AZD7762; first compound 0.08 µM)	relative viability (KN-93 + AZD7762; first compound 0.253 µM)	relative viability (KN-93 + AZD7762; first compound 2.53 µM)	relative viability (KN-93 + AZD7762; first compound 8 µM)
ChaGo-K-1	0.589	0.712	0.699	0.462	0.755	0.896	0.822	0.582	0.906	1.03	0.79	0.785	0.585	0.512	0.449	0.426	0.797	0.928	0.934	0.713
EKVX	0.998	0.977	0.895	0.714	0.642	0.653	0.655	0.585	0.359	0.285	0.341	0.279	0.536	0.75	0.743	0.552	0.623	0.515	0.73	0.354
EMC-BAC-2	1.07	1.27	1.18	0.901	0.51	0.534	0.399	0.345	0.912	0.826	0.945	0.714	0.373	0.355	0.389	0.337	1.22	1.28	1.2	0.872
EPLC-272H	0.438	0.183	0.266	0.173	0.436	0.212	0.274	0.152	0.289	0.279	0.283	0.23	0.218	0.295	0.297	0.219	0.195	0.2	0.527	0.347
H3255	0.85	0.97	0.774	0.776	0.842	0.76	0.927	0.311	0.643	0.59	0.671	0.417	0.615	0.515	0.619	0.431	0.878	0.894	0.989	0.558
HARA	0.659	1.15	0.449	0.284	0.394	0.475	0.503	0.493	0.632	0.549	0.434	0.461	0.427	0.457	0.413	0.138	0.303	0.392	0.193	0.271
HCC-15	0.297	0.319	0.504	0.279	0.773	0.877	0.932	0.738	0.359	0.367	0.348	0.306	0.558	0.722	0.636	0.527	1.18	1.24	1.38	1
